{"source": "patent EP0099194A2", "about": "“Novel benzamides” (BEECHAM GROUP PLC, priority 1982, dated 1984)", "format_in_all_cases": "in vivo", "key": {"5-MDMT induced symptoms [1]": {"test_system": "5-MDMT induced symptoms", "assay": "Anti-5HT activity: inhibition of 5-MDMT induced symptoms in rats", "conditions": "Rat; for ED50: po", "description": "[The procedure below names another organism; the source lists this organism under the same test.] (§1) Mice (♂ CD^-1 Charles Rine) are pretreated with the compounds 10 animals/group under investigation and 1 h later one group is injected with 10 mg/kg ip 5-methoxy-N,N-dimethyltryptamioe (Sigma). The symptoms of fore- paw tapping movements, head jerks and splayed limbs are scored: 1, present; O, absent, giving a maximum score of 3/mouse or 30/group. Results are expressed as the percentage inhibition compared to the group treated with 5-methoxy-N,N-dimethyl tryptamine alone. The dose of compound inhibiting the symptoms by 50% is determined graphically."}, "5-MDMT induced symptoms [2]": {"test_system": "5-MDMT induced symptoms", "assay": "Anti-5HT activity: inhibition of 5-methoxy-N,N-dimethyltryptamine induced symptoms in mice", "conditions": "Mouse, p.o., pretreated 1 h before 10 mg/kg ip 5-methoxy-N,N-dimethyltryptamine, dose inhibiting symptoms by 50%; for ED50: po", "description": "as §1"}, "[3]": {"test_system": "post-synaptic Dopamine (D.A.) receptors", "assay": "Dopamine receptor blocking activity in the CNS: inhibition of apomorphine induced climbing", "conditions": "male CDl mice, p.o., apomorphine 1 mg/kg subcutaneous", "description": "The test is based on that described by Protais, P., Constantin, J. and Schwartz J.C. (1976), Psychopharmacology, 50, 1-6.\nWhen mice are given a dose of 1 mg/kg apomorphine and then placed in an enclosed environment, such as an inverted wire cage, they are seen to climb around the walls. This behavioural phenomenon is thought to be a consequence of the stimulation of post-synaptic Dopamine (D.A.) receptors in the nucleus accumbens. Inhibition of apomorphine induced climbing is therefore indicative of post-synaptic D.A. receptor blockade in the accumbens.\nGroups of 10 male CDl mice, weighing 25-30 g were pre-treated orally with either graded doses of the test compound or vehicle, at appropriate time intervals before the subcutaneous administration of a sub-maximal dose of apomorphine (1 mg/kg). Immediately after the apomorphine injection the mice were placed in wire 'climbing cages' and each animal was scored for climbing behavour at 10 and 20 minutes post apomorphine as follows:- • Four paws on cage floor = O • Fore paws on cage wall = 1 • Four paws on cage wall = 2 […]"}}}
{"compound": "COc1cc(NC(C)=O)c(Cl)cc1C(=O)NC1CC2CCCC(C1)N2CC(C)(C)C", "note": "(stereo not drawn) [Example 6]", "values": [{"measurement": "ED50", "setting": "5-MDMT induced symptoms [1]", "result": 10, "unit": "mg/kg"}]}
{"compound": "COc1cc(N)c(Cl)cc1C(=O)NC1CC2CCCC(C1)N2CC(C)(C)C", "note": "(stereo not drawn) [Example 4, 4-Amino-5-chloro-2-mthoxy-N-[3-β-(9-neopentyl-9-azabicyclo (3,3,1)nonyl)]benzamide]", "values": [{"measurement": "ED50", "setting": "5-MDMT induced symptoms [2]", "result": 4.6, "unit": "mg/kg"}, {"measurement": "ED50", "setting": "5-MDMT induced symptoms [1]", "result": 6.2, "unit": "mg/kg"}]}
{"compound": "COc1cc(N)c(Cl)cc1C(=O)NC1CC2CCC(C1)N2CC(C)(C)C", "note": "(stereo not drawn) [Example 2, 4-Amino-5-chloro-2-methoxy-N-[3-β-(8-neopentyl-8-azabicyclo (3,2,1)octyl)] benzamide]", "values": [{"measurement": "ED50", "setting": "5-MDMT induced symptoms [2]", "result": 0.2, "unit": "mg/kg"}, {"measurement": "ED50", "setting": "5-MDMT induced symptoms [1]", "result": 7.2, "unit": "mg/kg"}]}
{"compound": "COc1cc(N)c(Cl)cc1C(=O)NC1CC2CCC(C1)N2CCC(C)C", "note": "(stereo not drawn) [Example 5, 4-Amino-5-chloro-2-methoxy-N-[3-β-(8-isopentyl-8-azabicyclo(3,2,1)octyl)] benzamide]", "values": [{"measurement": "ED50", "setting": "5-MDMT induced symptoms [2]", "result": 8, "unit": "mg/kg"}]}
{"compound": "4-Amino-5-chloro-2-methoxy-N-[3-β-(8-cyclopropylmethyl-8-azabicyclo (3,2,1)octyl]benzamide [Example 3]", "values": [{"measurement": "Anti 5-HT Activity Inhibition of 5-MDMT induced symptoms ED50", "setting": "5-MDMT induced symptoms [2]", "result": "ED503 mg/kg"}, {"measurement": "Anti 5-HT Activity Inhibition of 5-MDMT induced symptoms", "setting": "5-MDMT induced symptoms [1]; at 10 mg/kg p.o.", "result": 56, "unit": "% at 10"}]}
{"compound": "COc1cc(N)c(Br)cc1C(=O)NC1CC2CCC(C1)N2CC(C)(C)C", "note": "(stereo not drawn) [Example 7, 4-Amino-5-bromo-2-methoxy-N-[3-β-(8-neopentyl-8-azabicyclo (3,2,1)octyl) ]benzamide]", "values": [{"measurement": "ED50", "setting": "5-MDMT induced symptoms [2]", "result": 4, "unit": "mg/kg"}]}
{"compound": "COc1cc(NC(C)=O)c(Cl)cc1C(=O)N[C@@H]1C[C@H]2CC[C@@H](C1)N2CC(C)(C)C", "note": "[Example 1, 4-Aoetylamino-5-chloro-2-methoxy-N-[3-β-(8-neopentyl-8-azabicyclo (3,2,1)octyl)]benzamide]", "values": [{"measurement": "ED50", "setting": "5-MDMT induced symptoms [2]", "result": 2.4, "unit": "mg/kg"}, {"measurement": "ED50", "setting": "5-MDMT induced symptoms [1]", "result": 10, "unit": "mg/kg"}, {"measurement": "ED50 inhibition of apomorphine - induced climbing", "setting": "[3]", "result": 4, "unit": "mg/kg"}]}
